Experimental data as given in patent publication EP0521963B1, “CRF ANALOGS” (THE SALK INSTITUTE FOR BIOLOGICAL STUDIES, priority 1990, dated 1998).

System: cultured rat pituitary cells
Assay: Stimulation of secretion of ACTH and β-endorphin by cultured rat pituitary cells (procedure of Endocrinology, 91, 562 (1972))
Type: cell-based
Conditions: compared against synthetic oCRF, read-out: Half-maximal responses
Text: This synthetic peptide is examined for its effects on the secretion of ACTH and β-endorphin in vitro and also in vivo.

## CC[C@H](C)[C@H](NC(=O)[C@H](CC(=O)O)NC(=O)[C@H](CC(C)C)NC(=O)[C@H](CC(C)C)NC(=O)[C@H](CCCCN)NC(=O)[C@H](CCCNC(=N)N)NC(=O)[C@H](CC(N)=O)NC(=O)[C@H](CO)NC(=O)[C@H](Cc1c[nH]cn1)NC(=O)[C@H](C)NC(=O)[C@H](CCC(N)=O)NC(=O)[C@H](CCC(N)=O)NC(=O)[C@H](C)NC(=O)[C@H](CC(C)C)NC(=O)[C@H](CCC(N)=O)NC(=O)[C@H](CC(=O)O)NC(=O)[C@H](C)NC(=O)[C@H](CCCCN)NC(=O)[C@@H](NC(=O)[C@H](CCSC)NC(=O)[C@H](CCC(=O)O)NC(=O)[C@H](CC(C)C)NC(=O)[C@@H](NC(=O)[C@H](CCC(=O)O)NC(=O)[C@H](CCCNC(=N)N)NC(=O)[C@H](CC(C)C)NC(=O)[C@H](CC(C)C)NC(=O)[C@H](Cc1c[nH]cn1)NC(=O)[C@H](Cc1ccccc1)NC(=O)[C@@H](NC(=O)[C@H](CC(C)C)NC(=O)[C@H](CC(=O)O)NC(=O)[C@H](CC(C)C)NC(=O)[C@H](CO)NC(=O)[C@@H](NC(=O)[C@@H]1CCCN1C(=O)[C@@H]1CCCN1C(=O)[C@H](CCC(=O)O)NC(=O)[C@H](CCC(N)=O)NC(=O)[C@@H](N)CO)[C@@H](C)CC)[C@@H](C)O)C(C)C)[C@@H](C)O)C(=O)N[C@@H](C)C(N)=O [oCRF]
  EC50: ~0.25 nM
